# Laboratory results taken from ChEMBL document CHEMBL3885861, “Open TG-GATES”.
# Species on record: Rattus norvegicus
# Assay: Open TG-GATES - Regimen: Single
# Format: toxicity, organism-based, Sprague-Dawley
# Parameters: regimen Single, gender Male, age 6 weeks
# Conditions: in vivo, po, 10 mg/kg, route gavage, dose level Middle; for APTT / Bas / Eos / Fbg / Hb / Ht / Lym / MCH / MCHC / MCV / Mono / Neu / PT / Plat / RBC / Ret / WBC: tissue Blood; for KIDNEY_L / KIDNEY_R / KIDNEY_TOTAL: tissue Kidney; for LIVER: tissue Liver; for A/G / ALP / ALT / AST / BUN / CRE / Ca / Cl / DBIL / GLC / IP / K / LDH / Na / PL / RALB / TBIL / TC / TG / TP / gamma-GTP: tissue Plasma
structure (smiles),measurement,setting,value
C[C@H]1C(=O)O[C@@H]2CCN3CC=C(COC(=O)[C@](C)(O)[C@]1(C)O)[C@H]23 [MONOCROTALINE],TERMINAL_BW,3 h,213.5 g
same,APTT,3 h,19.4 s
same,Bas,3 h,0%
same,Eos,3 h,1.4%
same,Fbg,3 h,303.6 mg/dL
same,Hb,3 h,12.9 g/dL
same,Ht,3 h,37.7%
same,Lym,3 h,77.2%
same,MCH,3 h,21.5 pg
same,MCHC,3 h,34.2%
same,MCV,3 h,62.9 fL
same,Mono,3 h,2.2%
same,Neu,3 h,19%
same,PT,3 h,16.5 s
same,Plat,3 h,122.4 x10_4/uL
same,RBC,3 h,600.4 x10_4/ul
same,Ret,3 h,8.6%
same,WBC,3 h,80.3 x10_2/uL
same,KIDNEY_L,3 h,1 g
same,KIDNEY_R,3 h,0.9 g
same,KIDNEY_TOTAL,3 h,1.9 g
same,LIVER,3 h,9.8 g
same,A/G,3 h,1.3
same,ALP,3 h,1633.4 IU/L
same,ALT,3 h,44.4 IU/L
same,AST,3 h,72.8 IU/L
same,BUN,3 h,14.2 mg/dL
same,CRE,3 h,0.1 mg/dL
same,Ca,3 h,10.8 mg/dL
same,Cl,3 h,105.6 meq/L
same,DBIL,3 h,0.002 mg/dL
same,GLC,3 h,171.8 mg/dL
same,IP,3 h,8.9 mg/dL
same,K,3 h,4.3 meq/L
same,LDH,3 h,207.6 IU/L
same,Na,3 h,142.6 meq/L
same,PL,3 h,139 mg/dL
same,RALB,3 h,3 g/dL
same,TBIL,3 h,0.012 mg/dL
same,TC,3 h,80 mg/dL
same,TG,3 h,73.2 mg/dL
same,TP,3 h,5.3 g/dL
same,gamma-GTP,3 h,1 IU/L
same,TERMINAL_BW,6 h,207.4 g
same,APTT,6 h,21.7 s
same,Bas,6 h,0%
same,Eos,6 h,1.2%
same,Fbg,6 h,303.2 mg/dL
same,Hb,6 h,13.2 g/dL
same,Ht,6 h,38.9%
same,Lym,6 h,72.4%
same,MCH,6 h,20.9 pg
same,MCHC,6 h,34%
same,MCV,6 h,61.6 fL
same,Mono,6 h,3.2%
same,Neu,6 h,22%
same,PT,6 h,16.3 s
same,Plat,6 h,121.5 x10_4/uL
same,RBC,6 h,632 x10_4/ul
same,Ret,6 h,8.4%
same,WBC,6 h,93.8 x10_2/uL
same,KIDNEY_L,6 h,1 g
same,KIDNEY_R,6 h,1 g
same,KIDNEY_TOTAL,6 h,1.9 g
same,LIVER,6 h,9.1 g
same,A/G,6 h,1.3
same,ALP,6 h,1403 IU/L
same,ALT,6 h,36.6 IU/L
same,AST,6 h,70.8 IU/L
same,BUN,6 h,11.2 mg/dL
same,CRE,6 h,0.1 mg/dL
same,Ca,6 h,10.5 mg/dL
same,Cl,6 h,107 meq/L
same,DBIL,6 h,0.004 mg/dL
same,GLC,6 h,179.6 mg/dL
same,IP,6 h,9.5 mg/dL
same,K,6 h,4.3 meq/L
same,LDH,6 h,222.6 IU/L
same,Na,6 h,141.8 meq/L
same,PL,6 h,129 mg/dL
same,RALB,6 h,3 g/dL
same,TBIL,6 h,0.016 mg/dL
same,TC,6 h,72.2 mg/dL
same,TG,6 h,53.2 mg/dL
same,TP,6 h,5.3 g/dL
same,gamma-GTP,6 h,1 IU/L
same,TERMINAL_BW,9 h,203.7 g
same,APTT,9 h,20 s
same,Bas,9 h,0%
same,Eos,9 h,1%
same,Fbg,9 h,294.4 mg/dL
same,Hb,9 h,13.1 g/dL
same,Ht,9 h,38.6%
same,Lym,9 h,75.4%
same,MCH,9 h,21 pg
same,MCHC,9 h,34.1%
same,MCV,9 h,61.7 fL
same,Mono,9 h,2.8%
same,Neu,9 h,20.2%
same,PT,9 h,16.5 s
same,Plat,9 h,119.6 x10_4/uL
same,RBC,9 h,626 x10_4/ul
same,Ret,9 h,8.8%
same,WBC,9 h,71.7 x10_2/uL
same,KIDNEY_L,9 h,1 g
same,KIDNEY_R,9 h,1 g
same,KIDNEY_TOTAL,9 h,2 g
same,LIVER,9 h,9 g
same,A/G,9 h,1.3
same,ALP,9 h,1365.4 IU/L
same,ALT,9 h,33.6 IU/L
same,AST,9 h,62.8 IU/L
same,BUN,9 h,11.4 mg/dL
same,CRE,9 h,0.1 mg/dL
same,Ca,9 h,10.6 mg/dL
same,Cl,9 h,106.2 meq/L
same,DBIL,9 h,0.006 mg/dL
same,GLC,9 h,180.2 mg/dL
same,IP,9 h,9.7 mg/dL
same,K,9 h,4.2 meq/L
same,LDH,9 h,144 IU/L
same,Na,9 h,142.2 meq/L
same,PL,9 h,132.8 mg/dL
same,RALB,9 h,3.1 g/dL
same,TBIL,9 h,0.024 mg/dL
same,TC,9 h,73.2 mg/dL
same,TG,9 h,54.8 mg/dL
same,TP,9 h,5.4 g/dL
same,gamma-GTP,9 h,1.2 IU/L
same,TERMINAL_BW,24 h,217 g
same,APTT,24 h,21.3 s
same,Bas,24 h,0%
same,Eos,24 h,0.8%
same,Fbg,24 h,309.8 mg/dL
same,Hb,24 h,13.5 g/dL
same,Ht,24 h,39.6%
same,Lym,24 h,80.8%
same,MCH,24 h,21.1 pg
same,MCHC,24 h,34%
same,MCV,24 h,61.9 fL
same,Mono,24 h,2.8%
same,Neu,24 h,15.2%
same,PT,24 h,16.2 s
same,Plat,24 h,117.4 x10_4/uL
same,RBC,24 h,639.8 x10_4/ul
same,Ret,24 h,7.1%
same,WBC,24 h,75.2 x10_2/uL
same,KIDNEY_L,24 h,1 g
same,KIDNEY_R,24 h,1 g
same,KIDNEY_TOTAL,24 h,2 g
same,LIVER,24 h,10 g
same,A/G,24 h,1.3
same,ALP,24 h,1872.8 IU/L
same,ALT,24 h,45.2 IU/L
same,AST,24 h,75.4 IU/L
same,BUN,24 h,17 mg/dL
same,CRE,24 h,0.1 mg/dL
same,Ca,24 h,10.4 mg/dL
same,Cl,24 h,106.6 meq/L
same,DBIL,24 h,0.002 mg/dL
same,GLC,24 h,180.8 mg/dL
same,IP,24 h,6.9 mg/dL
same,K,24 h,4.3 meq/L
same,LDH,24 h,235.8 IU/L
same,Na,24 h,142.2 meq/L
same,PL,24 h,153 mg/dL
same,RALB,24 h,3.1 g/dL
same,TBIL,24 h,0.006 mg/dL
same,TC,24 h,79.4 mg/dL
same,TG,24 h,114.6 mg/dL
same,TP,24 h,5.5 g/dL
same,gamma-GTP,24 h,0.8 IU/L
